Measured values as given in patent publication US9339463B2, “Micronized opioid compositions having a specific particle size distribution” (priority 2007, dated 2016).
“And” between values parts separate entries of the source, which are not always exact repeats. Equal values may be shown once.

Columns and labels:
Assay type in all cases: physicochemical
[1] = Particle size distribution by laser diffraction (Malvern Mastersizer 2000), oxycodone base
[2] = Particle size by optical microscopy, number % undersize; settings: mean diameter
Protocol: (§1) As a secondary analytical method, the micronized and the non-micronized oxycodone analyzed by laser diffraction with results shown in Table 1, were analyzed by optical microscopy to evaluate particle size and the results are shown in Table 2. Sample aliquots (˜50 mg for micronized and ˜225 mg for non-micronized) were dispersed in 10 ml of sunflower oil and viewed on a Nikon microscope equipped with a 10× objective. Particle size (mean diameter) was determined using Image Pro® Plus software and expressed as a number % undersize. The particle size values determined by optical microscopy as shown in Table 2 are consistent with the laser diffraction particle size data shown in Table 1.

[3] = Chemical stability on storage: assay and impurities
Protocol: (§2) Samples of Example 2 and additional samples comprising micronized and non-micronized oxycodone useful for exemplary dosage forms are tested for their chemical stability and physical stability. Based on a comparison of stability data from micronized and non-micronized samples stored at both 25° C./60% RH and 40 C.°/75% RH, no differences are observed in the impurity profile through three months of study as shown in Tables 4 and 5 for exemplary lots. The impurities analyzed include (HOXY), 14-Hydroxycodeinone; (DHOXYN), 7,8-Dihydro-8,14-Dihydroxycodeinone; (DHOXY), 7,8-Dihydro-14-hydroxycodeine; (OXYE), Oxycodone ethylenolate; (OXYN), 1-Hydroxyoxycodone and Oxycodone N-oxide. Most of the impurities are found to be below the limit of quantitation (LOQ), except for HOXY and DHOXYN which were unchanged at 0.1%. […] The solid state stability of the micronized oxycodone is monitored for particle size, XRPD, DSC, and microscopy as shown in Table 6.

[4] = Physical stability on storage: particle size (Dv90) by laser diffraction
[5] = Physical stability on storage: DSC onset melt
Protocol: The micronized lots may also be analyzed by Differential Scanning Calorimetry (DSC). DSC is performed on a TA instrument Q100 using a heating ramp from 25-235° C. at a rate of 5° C./min. […] The sharp endotherm observed is consistent with a crystalline material and the absence of other thermal events proves that there were no polymorph transformations during melting.
as §2

[6] = Physical stability on storage: microscopy
Protocol: as §1, §2

[7] = Table 1 analysis, lot 2 in duplicate
[8] = additional laser diffraction analysis, Table 3

COc1ccc2c3c1O[C@H]1C(=O)CC[C@@]4(O)[C@@H](C2)N(C)CC[C@]314 [Lot 2, oxycodone]
Particle size (Dv10) [1, 7]: 0.5, 0.5 μ
Particle size (Dv50) [1, 7]: 1.5 μ and 2.2 μ
Particle size (Dv90) [1, 7]: 3.1 μ and 5.1 μ
Particle size (Dv10) [1, 8]: 0.6 μ
Particle size (Dv50) [1, 8]: 2.1 μ
Particle size (Dv90) [1, 8]: 5.8 μ
% ≦ 1μ [2]: 25.3%
% ≦ 5μ [2]: 92.2%
% ≦ 10μ [2]: 99.5%
1-HydroxyOXY ([3]; 5° C./60% RH, 1 mo (Table 4)): <LOQ
1-HydroxyOXY ([3]; 5° C./60% RH, 3 mo (Table 4)): <LOQ
Assay ([3]; 25° C./60% RH, 1 mo): 99.8%
DHOXY (7,8-Dihydro-14-hydroxycodeine) ([3]; 25° C./60% RH, 1 mo): <LOQ
DHOXYN (7,8-Dihydro-8,14-Dihydroxycodeinone) ([3]; 25° C./60% RH, 1 mo): 0.10%
HOXY (14-Hydroxycodeinone) ([3]; 25° C./60% RH, 1 mo): 0.08%
OXYE (Oxycodone ethylenolate) ([3]; 25° C./60% RH, 1 mo): <LOQ
OXYN ([3]; 25° C./60% RH, 1 mo): <LOQ
Other (impurities; Table 5: >0.05%) ([3]; 25° C./60% RH, 1 mo): <LOQ
Total impurities ([3]; 25° C./60% RH, 1 mo): 0.18%
Assay ([3]; 25° C./60% RH, 3 mo): 99.8%
DHOXY (7,8-Dihydro-14-hydroxycodeine) ([3]; 25° C./60% RH, 3 mo): <LOQ
DHOXYN (7,8-Dihydro-8,14-Dihydroxycodeinone) ([3]; 25° C./60% RH, 3 mo): 0.10%
HOXY (14-Hydroxycodeinone) ([3]; 25° C./60% RH, 3 mo): 0.08%
OXYE (Oxycodone ethylenolate) ([3]; 25° C./60% RH, 3 mo): <LOQ
OXYN ([3]; 25° C./60% RH, 3 mo): <LOQ
Other (impurities; Table 5: >0.05%) ([3]; 25° C./60% RH, 3 mo): <LOQ
Total impurities ([3]; 25° C./60% RH, 3 mo): 0.18%
1-HydroxyOXY ([3]; 40° C./75% RH, 1 mo): <LOQ
Assay ([3]; 40° C./75% RH, 1 mo): 99.6%
DHOXY (7,8-Dihydro-14-hydroxycodeine) ([3]; 40° C./75% RH, 1 mo): <LOQ
DHOXYN (7,8-Dihydro-8,14-Dihydroxycodeinone) ([3]; 40° C./75% RH, 1 mo): 0.10%
HOXY (14-Hydroxycodeinone) ([3]; 40° C./75% RH, 1 mo): 0.08%
OXYE (Oxycodone ethylenolate) ([3]; 40° C./75% RH, 1 mo): <LOQ
OXYN ([3]; 40° C./75% RH, 1 mo): <LOQ
Other (impurities; Table 5: >0.05%) ([3]; 40° C./75% RH, 1 mo): <LOQ
Total impurities ([3]; 40° C./75% RH, 1 mo): 0.18%
1-HydroxyOXY ([3]; 40° C./75% RH, 3 mo): <LOQ
Assay ([3]; 40° C./75% RH, 3 mo): 99.2%
DHOXY (7,8-Dihydro-14-hydroxycodeine) ([3]; 40° C./75% RH, 3 mo): <LOQ
DHOXYN (7,8-Dihydro-8,14-Dihydroxycodeinone) ([3]; 40° C./75% RH, 3 mo): 0.10%
HOXY (14-Hydroxycodeinone) ([3]; 40° C./75% RH, 3 mo): 0.08%
OXYE (Oxycodone ethylenolate) ([3]; 40° C./75% RH, 3 mo): <LOQ
OXYN ([3]; 40° C./75% RH, 3 mo): <LOQ
Other (impurities; Table 5: >0.05%) ([3]; 40° C./75% RH, 3 mo): <LOQ
Total impurities ([3]; 40° C./75% RH, 3 mo): 0.18%
1-HydroxyOXY ([3]; Time 0): <LOQ
Assay ([3]; Time 0): 100.7%
DHOXY (7,8-Dihydro-14-hydroxycodeine) ([3]; Time 0): <LOQ
DHOXYN (7,8-Dihydro-8,14-Dihydroxycodeinone) ([3]; Time 0): 0.10%
HOXY (14-Hydroxycodeinone) ([3]; Time 0): 0.08%
OXYE (Oxycodone ethylenolate) ([3]; Time 0): <LOQ
OXYN ([3]; Time 0): <LOQ
Other (impurities; Table 5: >0.05%) ([3]; Time 0): <LOQ
Total impurities ([3]; Time 0): 0.18%
Particle size (Dv90) ([4]; 25° C./60% RH, 3 months): 10 μ
Particle size (Dv90) ([4]; 40° C./75% RH, 3 months): 10 μ
Particle size (Dv90) ([4]; Time 0): 4 μ
DSC Onset Melt ([5]; 25° C./60% RH, 3 mo): 221.8 °C
DSC Onset Melt ([5]; 40° C./75% RH, 3 mo): 221.9 °C
DSC Onset Melt ([5]; Time 0): 221.8 °C
Microscopy, ≦10 μ ([6]; 25° C./60% RH, 3 mo): 99.5%
Microscopy, ≦10 μ ([6]; 40° C./75% RH, 3 mo): 98.3%
Microscopy, ≦10 μ ([6]; Time 0): 99.5%
